Results as given in PMC6158327, “Negative Allosteric Modulators of mGlu7 Receptor as Putative Antipsychotic Drugs” (Frontiers in Molecular Neuroscience, 2018).

Legend:
[1] = test system: field potentials in frontal cortical slices; experiment: Electrophysiology: field potentials in frontal cortical slices, mGlu7 KO mice; conditions: for Before-after effect of the drug on FP amplitude: KO animals; for S (factor proportional to the slope of the curve) / Uh (stimulation intensity evoking FP of half-maximum amplitude) / Vmax (maximum FP amplitude, Boltzmann fit): slices from mGlu7 KO mice, after 20 min drug superfusion
Text: (§1) Mice (wild and KO, approx. 25 g) were housed under a controlled light/dark cycle (light on: 0700–1900) and had free access to standard food and tap water. Mice were anesthetized with isoflurane (Aerrane, Baxter) decapitated, their brains were dissected and immersed in an ice-cold artificial cerebrospinal fluid (ACSF) of the following composition (in mM): NaCl (130), KCl (5), CaCl2 (2.5), MgSO4 (1.3), KH2PO4 (1.25), NaHCO3 (26), and glucose (10), bubbled with a mixture of 95% O2/5% CO2 to pH 7.4. Frontal cortical slices (bregma 1.9–1.4, 380 μm) were cut in a coronal plane using a vibrating microtome and they were stored at 32°C. A single slice was next transferred to the recording chamber (32°C ± 0.5°C) and superfused at 2.5 ml/min with a ACSF.
(§2) A bipolar stimulating electrode (FHC) was placed approx. 2 mm lateral to the midline and approx. 1.0 mm below the pial surface (in layer V) (Figure 1). Stimuli (duration: 0.2 ms) were applied at 0.033 Hz using a constant-current stimulus isolation unit (WPI). Field potentials (FPs) were recorded using glass micropipettes filled with ACSF (1–3 MΩ), which were placed approx. 0.2 mm below the cortical surface (in layer II/III). FPs were amplified (Axoprobe 1A, Axon Instruments), A/D converted at 10 kHz and stored using Micro1401 interface and Signal 4 software (CED).
(§3) The stimulus–response curves obtained for each slice were fit with the Boltzmann equation: Vi = Vmax/(1 + exp[(u - Uh)/-S]), where Vmax is the maximum FP amplitude; u is the stimulation intensity; Uh is the stimulation intensity evoking FP of half-maximum amplitude; S is the factor proportional to the slope of the curve; “exp” is exponentiation – mathematical operation. The results are expressed as the means ± SEM. Statistical analyses were carried out using t-test ([Tokarski et al., 2011]).
(§4) For each slice, at the beginning of the experiment an input-output curve was generated in ACSF. A stimulus-response (input-output) curve was made for each slice. […] One response was recorded at each stimulation intensity. […] Statistical analyzes were carried out using paired t-test and ANOVA.

[2] = test system: MK-801-induced hyperactivity; experiment: MK-801-induced hyperactivity; assay type: in vivo, Albino Swiss mice; conditions: 30 min prior to MK-801 (0.35 mg/kg, i.p.), mice
Description: The locomotor activity was recorded individually for each animal in OPTO-M3 locomotor activity cages (Columbus Instrument) linked online to a compatible PC activity, as described previously by [Woźniak et al., 2016b]. Each cage (13 cm × 23 cm × 15 cm) was surrounded with an array of photocell beams. […] The locomotor activity was measured for 60 min immediately after MK-801 administration.

[3] = test system: prepulse-induced inhibition of the acoustic startle response; experiment: Prepulse inhibition of the acoustic startle response; assay type: in vivo, Wistar rats; conditions: rats; for Effect on MK-801-induced disruption of prepulse inhibition: 30 min prior to MK-801 (0.3 mg/kg)
Description: The procedure was performed according to [Czyrak et al., 2003]. On the day before the experiment, the animals were subjected to a single startle session consisting of two trials, each presented 20 times during the session. During the first trial, a 120 dB, 40 ms pulse was presented, and on the second trial this pulse was preceded by a 75 dB, 20 ms prepulse. On the day of the experiment, the animals were habituated to the background white noise (65 dB) for 5 min (which continued throughout the test), after that the startle session was carried out as described above. Startle response amplitude was defined as the difference between the maximum force detected during a recording window and the force measured immediately before the stimulus onset (the threshold was set at 10 g). For each animal, the amplitudes were averaged separately for each type of trial. The PPI was calculated as the difference between the amplitudes of the pulse (P) and the prepulse + pulse (PP+P), divided by the amplitude of the pulse alone [([P - (PP + P)]/P)×100].

[4] = test system: field potentials in frontal cortical slices; experiment: Electrophysiology: field potentials in frontal cortical slices, WILD mice; parameters: species or system C57BL/6J WT mice; conditions: for Before-after effect of the drug on FP amplitude: WILD group; for S (factor proportional to the slope of the curve) / Uh (stimulation intensity evoking FP of half-maximum amplitude) / Vmax (maximum FP amplitude, Boltzmann fit): slices from WILD mice, after 20 min drug superfusion
Text: as §1, §2, §3, §4

[5] = target: T1, Cytochrome P450 1A2 (Homo sapiens, UniProt P05177); experiment: Cytochrome P450 inhibition, 1A2; assay type: in vitro ADME
T1 sequence (P05177 1-516): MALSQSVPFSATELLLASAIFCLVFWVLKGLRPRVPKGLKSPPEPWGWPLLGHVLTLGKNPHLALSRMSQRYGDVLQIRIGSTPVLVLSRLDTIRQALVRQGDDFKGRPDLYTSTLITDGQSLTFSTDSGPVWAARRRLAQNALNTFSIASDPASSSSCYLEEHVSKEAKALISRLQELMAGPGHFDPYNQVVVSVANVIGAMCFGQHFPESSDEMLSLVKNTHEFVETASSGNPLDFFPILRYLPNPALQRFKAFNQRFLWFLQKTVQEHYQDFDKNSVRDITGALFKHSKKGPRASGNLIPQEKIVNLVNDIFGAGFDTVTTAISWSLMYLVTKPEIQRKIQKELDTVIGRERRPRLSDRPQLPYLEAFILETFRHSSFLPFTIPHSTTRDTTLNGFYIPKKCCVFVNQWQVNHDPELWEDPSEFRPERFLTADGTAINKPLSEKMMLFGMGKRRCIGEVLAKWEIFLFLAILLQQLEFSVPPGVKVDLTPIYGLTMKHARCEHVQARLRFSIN

SMILES: COc1ccc(-c2cc3onc(-c4ccncc4)c3c(=O)n2C)cc1 [MMPIP, 6-(4-Methoxyphenyl)-5-methyl-3-(4-pyridinyl)-isoxazolo(4,5-c)pyridin-4(5H)-one]
- Before-after effect of the drug on FP amplitude [1]: 100,1%
- S (factor proportional to the slope of the curve) [1]: 8.6 ± 1.01
- Uh (stimulation intensity evoking FP of half-maximum amplitude) [1]: 22.1 ± 1.4
- Vmax (maximum FP amplitude, Boltzmann fit) [1]: 2.16 ± 0.2
- Effect on MK-801-induced hyperactivity ([2]; 15 mg/kg i.p.): significant reversal of MK-801-induced effect
- Prepulse-induced inhibition of the acoustic startle response, drug given alone ([3]; 10 mg/kg given alone, effect not statistically significant): 137 % of control
- Effect on MK-801-induced disruption of prepulse inhibition ([3]; all doses (5, 10, and 15 mg/kg)): not antagonized
- Before-after effect of the drug on FP amplitude [4]: 123%
- Before-after effect, WILD group higher than KO animals ([4]; WILD vs. KO): about 23%
- S (factor proportional to the slope of the curve) [4]: 9.37 ± 0.83
- Uh (stimulation intensity evoking FP of half-maximum amplitude) [4]: 26.93 ± 1.6
- Vmax (maximum FP amplitude, Boltzmann fit) [4]: 2.53 ± 0.3^∗∗∗
- IC50 [5]: > 10 µM

SMILES: CCc1nc2c(o1)CC(c1ccc(C)cc1C)CC2=O (stereo not shown) [ADX71743, 6-(2,4-Dimethylphenyl)-2-ethyl-6,7-dihydro-4(5H)-benzoxazolone]
- Before-after effect of the drug on FP amplitude [1]: 106%
- S (factor proportional to the slope of the curve) [1]: 7.12 ± 0.41
- Uh (stimulation intensity evoking FP of half-maximum amplitude) [1]: 26.06 ± 1.18
- Vmax (maximum FP amplitude, Boltzmann fit) [1]: 2.36 ± 0.18
- Effect on MK-801-induced hyperactivity ([2]; 5 mg/kg i.p.): decreased MK-801-induced hyperactivity in a statistically significant way
- Effect on MK-801-induced hyperactivity ([2]; 15 mg/kg i.p.): decreased MK-801-induced hyperactivity in a statistically significant way
- Effect on MK-801-induced disruption of prepulse inhibition ([3]; 2.5 mg/kg): inhibited MK-801-induced disruption in PPI
- Before-after effect of the drug on FP amplitude [4]: 116%
- S (factor proportional to the slope of the curve) [4]: 6.53 ± 0.3
- Uh (stimulation intensity evoking FP of half-maximum amplitude) [4]: 26.07 ± 1.3
- Vmax (maximum FP amplitude, Boltzmann fit) [4]: 2.531 ± 0.1^∗∗∗
- IC50 [5]: > 10 µM
